Measured values taken from US7462599B2, “Use of effectors of glutaminyl and glutamate cyclases” (Probiodrug AG, priority 2003, dated 2008).
Entries after “also recorded” stand apart in the source; their conditions may differ. Like-named read-outs stand apart in the source and are kept apart here. Ends that are not written are not given here.

Legend:
QC [1] = biological target: T1, QC (Homo sapiens, UniProt Q16769); assay: MALDI-TOF qualitative substrate conversion, human QC; type: biochemical; set-up: The cDNA of the mature QC starting with codon 38 was fused in frame with the plasmid encoded 6× histidine tag; 6x histidine tag; made in house; host or cells: Pichia pastoris X33 (pPICZαB); also E. coli M15 (pQE-31)
T1 sequence (Q16769 29-361): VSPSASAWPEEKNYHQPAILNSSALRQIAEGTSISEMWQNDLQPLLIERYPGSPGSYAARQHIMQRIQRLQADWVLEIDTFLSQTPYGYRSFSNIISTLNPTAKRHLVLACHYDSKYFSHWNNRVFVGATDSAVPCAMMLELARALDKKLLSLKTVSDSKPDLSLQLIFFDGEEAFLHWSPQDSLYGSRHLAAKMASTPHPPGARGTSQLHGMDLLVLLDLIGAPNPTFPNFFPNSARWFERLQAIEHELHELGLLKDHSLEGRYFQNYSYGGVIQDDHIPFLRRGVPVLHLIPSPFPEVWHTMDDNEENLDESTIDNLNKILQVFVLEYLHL
Experimental: (§1) Matrix-assisted laser desorption/ionization mass spectrometry was carried out using the Hewlett-Packard G2025 LD-TOF System with a linear time of flight analyzer. […] Samples (5 μl) were mixed with equal volumes of the matrix solution. For matrix solution we used DHAP/DAHC, prepared by solving 30 mg 2′,6′-dihydroxyacetophenone (Aldrich) and 44 mg diammonium hydrogen citrate (Fluka) in 1 ml acetonitrile/0.1% TFA in water (1/1, v/v). A small volume (≈1 μl) of the matrix-analyte-mixture was transferred to a probe tip and immediately evaporated in a vacuum chamber (Hewlett-Packard G2024A sample prep accessory) to ensure rapid and homogeneous sample crystallization.
In order to further investigate the specificity and selectivity of the QCs, peptides were synthesized comprising either a modified N-terminal glutaminyl residue or a modified amino acid in the second position. […] Due to the cyclization of the glutaminyl residue or its analog, respectively, a mass difference of the substrate and the product of catalysis is detected. In cases of ammonia liberation of one mole per mole of substrate, the conversion was also analyzed quantitatively using the spectrophotometric assay.

DP IV (porcine kidney) = biological target: T2, DP IV (porcine kidney) (Sus scrofa, UniProt P22411); assay: DP IV cleavage of Gln3-Aβ(1-11)a, MALDI-TOF; type: biochemical
T2 construct: purified DP IV (porcine kidney); from tissue; host or cells: porcine kidney
T2 sequence (P22411 whole entry): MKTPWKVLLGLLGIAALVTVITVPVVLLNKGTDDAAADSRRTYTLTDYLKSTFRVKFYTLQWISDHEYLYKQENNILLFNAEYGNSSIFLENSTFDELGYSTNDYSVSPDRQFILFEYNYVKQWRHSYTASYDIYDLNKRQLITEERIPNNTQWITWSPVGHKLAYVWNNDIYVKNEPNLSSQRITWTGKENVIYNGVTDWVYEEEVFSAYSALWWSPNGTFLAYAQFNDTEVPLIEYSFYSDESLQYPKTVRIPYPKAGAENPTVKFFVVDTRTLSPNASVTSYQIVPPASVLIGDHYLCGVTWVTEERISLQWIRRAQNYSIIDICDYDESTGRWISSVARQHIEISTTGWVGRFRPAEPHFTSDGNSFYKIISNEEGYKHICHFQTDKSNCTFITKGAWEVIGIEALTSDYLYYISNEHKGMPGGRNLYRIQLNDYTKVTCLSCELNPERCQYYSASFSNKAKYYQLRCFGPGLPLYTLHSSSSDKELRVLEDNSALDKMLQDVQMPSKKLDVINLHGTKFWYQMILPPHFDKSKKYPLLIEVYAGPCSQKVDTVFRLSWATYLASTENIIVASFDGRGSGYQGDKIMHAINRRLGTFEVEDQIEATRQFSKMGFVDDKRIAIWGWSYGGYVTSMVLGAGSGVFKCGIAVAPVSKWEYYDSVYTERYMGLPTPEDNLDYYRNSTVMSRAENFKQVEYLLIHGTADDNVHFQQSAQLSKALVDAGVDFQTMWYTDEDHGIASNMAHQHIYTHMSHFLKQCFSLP
Experimental: as §1

DP IV and QC = assay: Consecutive catalysis of DP IV and QC in crude pituitary homogenate with added DPIV, MALDI-TOF; type: biochemical, porcine; conditions: inhibitor added
Experimental: as §1

QC [2] = biological target: T1, QC; assay: Fluorometric QC assay with pyroglutamyl aminopeptidase as auxiliary enzyme, human QC; type: biochemical; set-up: The cDNA of the mature QC starting with codon 38 was fused in frame with the plasmid encoded 6× histidine tag; 6x histidine tag; made in house; host or cells: Pichia pastoris X33 (pPICZαB); also E. coli M15 (pQE-31); conditions: H-Gln-AMC as substrate
Description: Excitation/emission wavelengths were 320/410 nm.
H-Glu(OMe)-βNA and H-Glu-βNA.

[3] = system: Glutaminyl cyclase present in the homogenate of porcine pituitary; assay: Cyclization of Gln3-Aβ(3-11)a by QC in pituitary homogenate, MALDI-TOF; type: biochemical
Experimental: as §1

mammalian QC = conditions: Busby et al. 1987; cited from earlier work
QC [4] = biological target: T1, QC; assay: Enzyme inactivation/reactivation of human QC; type: biochemical; set-up: The cDNA of the mature QC starting with codon 38 was fused in frame with the plasmid encoded 6× histidine tag; 6x histidine tag; made in house; host or cells: Pichia pastoris X33 (pPICZαB); also E. coli M15 (pQE-31)
QC [5] = biological target: T1, QC; assay: Long-term Glu1-cyclization of Aβ-derived peptides by recombinant human QC, MALDI-TOF; type: biochemical; set-up: The cDNA of the mature QC starting with codon 38 was fused in frame with the plasmid encoded 6× histidine tag; 6x histidine tag; made in house; host or cells: Pichia pastoris X33 (pPICZαB); also E. coli M15 (pQE-31); conditions: 5 mM benzimidazole
Description: At different times, samples were removed from the assay tube, peptides extracted using ZipTips (Millipore) according to the manufacturer's recommendations, mixed with matrix solution (1:1 v/v) and subsequently the mass spectra recorded.

[6] = Solubility in aqueous solution
QC [7] = biological target: T1, QC; assay: LC/MS analysis of QC-catalyzed pyroglutamate formation; type: biochemical

## H-Gln-Lys(Gln)-Arg-Leu-Ala-NH2 (H-QK(Gln)RLA-NH2; SMILES CC(C)C[C@H](NC(=O)[C@H](CCCNC(=N)N)NC(=O)[C@H](CCCCNC(=O)[C@@H](N)CCC(N)=O)NC(=O)[C@@H](N)CCC(N)=O)C(=O)N[C@@H](C)C(N)=O) [H-Gin-Lys(Gln)-Arg-Leu-Ala-NH2]
QC [1]
  conversion by human QC: converted

## CC(C)[C@H](N)C(=O)N1CCCC1 [Val-Pyrr, Val-Pyrrolidide]
DP IV (porcine kidney)
  prevention of DP IV cleavage of Gln3-Aβ(1-11)a: completely prevented
DP IV (porcine kidney); listed as Val-Pyrrolidide
  prevention of DP IV cleavage of Gln3-Aβ(1-11)a: prevention of the cleavage
DP IV and QC
  [pGlu3]Aβ(3-11)a formation from Gln3-Aβ(1-11)a in presence of DP IV and QC: reduction

## H-Gln(NMe)-Phe-Lys-Ala-Glu-NH2 (H-QFKAE-NH2; not fully specified (residue 1); printed as H-Gln(NMe)-Phe-Lys-Ala-Glu-NH2)
QC [1]
  conversion by human QC: not recognized by human QC; also recorded: No substrate conversion was observed
QC [2]
  inhibition of human QC by the peptide: not detected

## c1cnc2c(c1)ccc1cccnc12 [1,10-phenanthroline]
[3]
  inhibition of formation of [pGlu3]Aβ(3-11)a from Gln3-Aβ(3-11)a: inhibited; also recorded: inhibition of the formation
DP IV and QC
  [pGlu3]Aβ(3-11)a formation from Gln3-Aβ(1-11)a in presence of DP IV and QC: inhibition
Mammalian QC
  inhibition of mammalian QC: Inhibition of a mammalian QC was only detected
QC [4]
  inhibition of human QC catalyzed substrate cyclization by chelators: inhibited
QC [4]; 5 mM inactivating agent
  inactivation of human QC after extensive dialysis: almost completely inactivated

## c1ccc2[nH]cnc2c1 [benzimidazole]
QC [5]
  suppression of [pGlu3]Aβ(3-11)a / [pGlu3]Aβ(3-21)a formation: suppressed
QC [5]; listed as Benzimidazole
  suppression of [pGlu3]Aβ(3-11)a / [pGlu3]Aβ(3-21)a formation: suppressing the formation

## QFRHDSGYE-NH2 [[Gln^3]Aβ3-11a]
[6]
  solubility in aqueous solution: better solubility

## [Gln^5]-substance P(5-11): substance P fragment 5-11 with N-terminal Gln^5 after cleavage of residues 1-4 (QQFFGLM; ends and bridges not checked)
QC [7]
  formation of N-terminal pyroglutamate catalyzed by QC: transformed by QC
